Source: US8399452B2, “Dibenzo[b,f][1,4]oxazepin-11-yl-N-hydroxybenzamides as HDAC inhibitors” (Methylgene Inc., priority 2006, dated 2013)
Where two headings read alike, the source gives them in different places.

How the values were obtained:
[1] = target: histone deacetylase (HDAC Enzyme); assay: Inhibition of Histone Deacetylase Enzymatic Activity (Boc-Lys(Ac)-AMC, Fluor-de-Lys developer); format: biochemical
Method: The following protocol is used to assay the compounds of the invention.
The mixture is pre-incubated for 5 minutes at room temperature. The reaction is started by bringing the temperature to 37° C. and adding 16 μl substrate. Total reaction volume is 50 μl.
In the Tables 8, 9 and 10, A≦[…]<B≦0.1 μM; 0.1 μM<C≦1 μM; and 1 μM<D≦10 μM.

[2] = test system: HDAC in primary mouse cortical neurons; assay: Whole-Cell Histone Deacetylase (HDAC) Inhibition Assay in Primary Mouse Cortical Cultures; format: cell-based
Method: Primary neocortical cultures are established through the dissection of the neocortex from E17 embryos harvested from time-pregnant Balb/C mice. Following dissection, the neocortical tissue specimens undergo digestion by incubation at 37° C. for 10 minutes in dissection medium (1×HBSS/10 mM HEPES/1 mM Sodium Pyruvate) supplemented with (0.25%) Trypsin and (0.1%) DNase I. Digested tissue is washed and resuspended in plating medium (NeuroBasal/10% HS/0.5 mM L-Glutamine (Invitrogen Corporation)) for trituration. Additional plating medium is added, and the contents are passed over a 70 um cell-strainer. The cell-density is quantified using a hemacytometer, and dilutions are made to allow for the plating of 50000 cells/well/100 uL in 96-well PDL-coated plates. Plates are incubated for 4-5 hours in 37° C./5% CO2-incubator, after which time the entire volume is exchanged to feeding medium (NeuroBasal/2% B-27 Serum-free supplement/0.5 mM L-Glutamine/1% Penicillin-Streptomycin (Invitrogen Corporation)). The cultures undergo two 50% fresh feeding medium exchanges at 3 days in vitro (DIV3), and again at DIV7.
Compounds for testing are resuspended in dimethyl sulphoxide (DMSO), and further diluted in DMSO for a ten-point dose-response curve, with appropriate controls. Each master plate is assayed in triplicate. […] Three DIV9 culture plates are leveled to 50 uL/well, onto which each has overlaid 50 uL/well of the diluted daughter plate. The plates are returned to the 37° C./5% CO2-incubator for 16-18 hours.
The next step of the assay involves the exposure of a HDAC colorimetric substrate, comprising an acetylated lysine side chain, to the compound-treated neuronal cultures. Based on the ability of the compound to inhibit HDAC activity in the neuronal cultures, the substrate is deacetylated by HDACs, and subsequently sensitized. […] Compound-incubated culture plates are again leveled to 50 uL/well and 2 uL/well of 7.5 mM BOC-Lys (Ac)-AMC substrate is added and thoroughly mixed. Plates are returned to the 37° C./5% CO2-incubator for 1 hour.
The final addition to the culture plates entails treatment with a Fluor de LyS™-based developer (BIOMOL Research Laboratories, Inc.) to produce a fluorophore, which is analyzed using a spectrophotometer. The developer solution (1× Fluor de Lys™/1% NP-40/1 uM TSA in HDAC Buffer Solution) is prepared, and 50 uL/well is added to each of the wells of the culture plates. […] The plates are returned to the 37° C./5% CO2-incubator for 10-15 minutes, after which time, they are removed and set in the dark at room temperature for 5-10 minutes.

[3] = test system: Drosophila Huntington's Disease model flies; assay: In Vivo Drosophila Fly Assay for Treatment of Huntington's Disease (automated climbing behavior, early/late speed effect size); set-up: species or system Drosophila melanogaster; settings: for Speed 1 to 7 (effect size, early speed): average speed days 1-7 vs DMSO-carrier control; for Speed 8 to 10 (effect size, late speed): average speed days 8-10 vs DMSO-carrier control
Source text: The Drosophila Huntington's Disease assay used to screen compounds of the present invention followed that of WO 2007/002497, which is hereby incorporated by reference in its entirety.
Briefly, parental (model and driver) lines are maintained in sufficient quantities to provide virgins and males for assay crosses as well as perpetuating the lines. Disease model flies are maintained with the disease genes “silent”, functionally linked to a UAS enhancer element. The “driver” lines contain a GAL4 element under the control of a tissue-specific promoter. These are crossed together to generate the assay flies which have tissue-specific (i.e. CNS) expression of the disease gene(s).
Weekly assay crosses are set up with sufficient virgins and males to generate enough assay embryos for sorting. Approximately 50,000 males and 75,000 virgins are crossed in population cages. Embryos are collected for an eight hour window two days later. The embryos are then sorted onto 16 mm assay vials containing regular fly media and allowed to develop. Flies containing both the GAL4 driver element and the disease gene(s) are detected by the presence of GFP, a fluorescing protein. Approximately 10 assay flies eclose per vial, the optimal number for the behavioral assay. Once the flies eclose, they are transferred onto assay vials containing liquid Drosophila food. Similarly, control crosses are set up with virgins of the driver and males from a non-disease UAS line. Throughout fly production and the assay days, all flies are maintained at constant temperature and humidity, with preset light cycle, optimized for the particular lines and crosses.
Quality control (QC) for the parental lines is carried out weekly by collecting a sample of random male flies from each line. Single-fly PCR is carried out to ascertain the presence of the GAL4 or UAS element. If greater than 5% of the individuals lack the appropriate element, the assay cross is aborted. A second form of QC is also carried out to ensure that the GAL4 element is able to drive expression of a transgene. A sample of individual “driver” virgins is crossed to UAS-GFP males. Their progeny are visually checked for GFP expression in the appropriate tissues. Lack of GFP in greater than 4% of the crosses results in the assay being aborted.
Test compounds are weighed out and dissolved in DMSO at stock concentrations 100× what is desired in the assay and arrayed into 96-well master plates, including wells for DMSO-only controls and the positive control(s). A single well is reserved for a colored dye used to ensure proper orientation of compounds during drug dispensing and fly transfer. Replicate daughter plates for each day of the assay are stamped out. The plates are bar coded and stored at −20 C until used for the assay.
For a particular assay day, the plates are thawed and a robotic liquid handler is used to dilute the test compound into the liquid fly food and dispense the mixture into the assay vials. For Huntington Disease (HD) models, eight replicates per single treatment (one compound, one concentration) are dispensed. Fresh test compound treated media is made daily during an assay.
On the day the assay flies eclose (emerge from […]; assay Day 0) they are transferred to the test compound treated vials. On assay Day 1, the flies are transferred onto clean test compound treated vials one hour before assay time. They are then placed in the assay machine to acclimate to the appropriate climate conditions.
The assay machine is an environmentally-enclosed and controlled robot that can maintain user-set temperature and humidity. The machine can hold up to sixteen 96-vial racks in four quadrants, for a total of 1536 vials. There are four camera stations, which hold four vials each and a CCD camera for movie capture. […]

[4] = Table 10, read-out: HDAC Inhibition (IC50 μM) HDAC Enzyme
[5] = Table 10, whole-cell, read-out: HDAC Inhibition (IC50 μM) WC mouse cortical neurons

O=C(NO)c1ccc(OCCN2C(=O)c3ccccc3Oc3ccccc32)c(F)c1
IC50 [1, 4]: 0.05 to 0.1 µM
IC50 [2, 5]: < 1 µM

O=C(NO)c1ccc(OCCN2C(=O)c3cc(F)ccc3Oc3ccccc32)cc1
IC50 [1, 4]: < 0.05 µM
IC50 [2, 5]: < 1 µM

O=C(NO)c1ccc(OCCN2C(=O)c3ccccc3Oc3cc(Cl)ccc32)cc1
IC50 [1, 4]: < 0.05 µM
IC50 [2, 5]: 1 to 5 µM

O=C(NO)c1ccc(OCC(=O)N2Cc3ccccc3Oc3ccccc32)cc1
IC50 [1, 4]: 0.1 to 1 µM
IC50 [2, 5]: 1 to 5 µM

O=C(NO)c1cnc(N2C3CNC(C3)C2c2cc(C(F)(F)F)ccn2)nc1 (stereo not drawn)
Speed 1 to 7 (effect size, early speed) ([3]; 30 uM): 0.468
Speed 8 to 10 (effect size, late speed) ([3]; 30 uM): 0.087
Speed 1 to 7 (effect size, early speed) ([3]; 100 uM): 0.82
Speed 8 to 10 (effect size, late speed) ([3]; 100 uM): 0.82
Speed 1 to 7 (effect size, early speed) ([3]; 300 uM): 0.3
Speed 8 to 10 (effect size, late speed) ([3]; 300 uM): 0.54

O=C(NO)c1cccc(OCCN2C(=O)c3ccccc3Oc3ccccc32)c1
IC50 [1, 4]: 0.1 to 1 µM
IC50 [2, 5]: > 15 µM

O=C(NO)c1ccc(OCCN2C(=O)c3ccccc3Oc3ccccc32)cc1
IC50 [1, 4]: < 0.05 µM
IC50 [2, 5]: < 1 µM

CN1CCC2=C(C1)Oc1ccccc1N(CCOc1ccc(C(=O)NO)cc1)C2=O
IC50 [1, 4]: < 0.05 µM
IC50 [2, 5]: < 1 µM

O=C(NO)c1ccc(OCCN2C(=O)CCOc3ccccc32)cc1
IC50 [1, 4]: < 0.05 µM
IC50 [2, 5]: < 1 µM

O=C(NO)c1ccc(OCCN2CCOc3ccccc3C2=O)cc1
IC50 [1, 4]: < 0.05 µM
IC50 [2, 5]: 1 to 5 µM

O=C(NO)c1ccc(OCCN2C(=O)c3cccnc3Oc3ccccc32)cc1
IC50 [1, 4]: < 0.05 µM
IC50 [2, 5]: < 1 µM

O=C(NO)c1ccc(OCCN2C(=O)c3ccncc3Oc3ccccc32)cc1
IC50 [1, 4]: < 0.05 µM
IC50 [2, 5]: < 1 µM

O=C(NO)c1ccc(C2=Nc3ccccc3Oc3ccsc32)cc1 [(Z)-4-(benzo[b]thieno[2,3-f][1,4]oxazepin-10-yl)-N-hydroxybenzamide]
IC50 ([1]; read-out: HDAC Inhibtion (IC50 μM) HDAC Enzyme): < 0.05 µM
IC50 ([2]; whole cell, read-out: HDAC Inhibtion (IC50 μM) WC mouse cortical neurons): 1 to 5 µM
